# In PubChem BioAssay AID248 (DTP/NCI, 2004):
# “And” between values parts separate entries of the source, which are not always exact repeats. Equal entries are not always repeated. Toxic doses and inconclusive results are not listed.
# Tested on: L1210 leukemia ip in BDF1 mice, survival T/C
# Assay: NCI In Vivo Anticancer Drug Screen. Data for tumor model L1210 Leukemia (intraperitoneal) in B6D2F1 (BDF1) mice
# Settings: higher = longer survival
# Outline: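 Value reflects the ratio of survival in compound-treated mice to survival in vehicle-treated controls, with both groups carrying the same transplanted tumor.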
compound,measurement,setting,value
Nc1nc(=S)c2ncn(C3CC(O)C(CO)O3)c2[nH]1 (stereo unspecified),T/C,"endpoint: mean survival time, dose: 0.15 mg/kg/injection, schedule: Q01DX015 (ip), vehicle: carboxymethylcellulose (CMC)",121 % of control
same,T/C,"endpoint: mean survival time, dose: 0.31 mg/kg/injection, schedule: Q01DX009 (ip), vehicle: saline",119 % of control
same,T/C,"endpoint: mean survival time, dose: 0.32 mg/kg/injection, schedule: Q01DX015 (ip), vehicle: carboxymethylcellulose (CMC)",124 % of control
same,T/C,"endpoint: mean survival time, dose: 0.62 mg/kg/injection, schedule: Q01DX005 (ip), vehicle: clinical formulation",153 % of control
same,T/C,"endpoint: mean survival time, dose: 0.62 mg/kg/injection, schedule: Q01DX009 (ip), vehicle: saline",150 % of control
same,T/C,"endpoint: mean survival time, dose: 0.62 mg/kg/injection, schedule: Q01DX015 (ip), vehicle: carboxymethylcellulose (CMC)",151 % of control
same,T/C,"endpoint: mean survival time, dose: 0.63 mg/kg/injection, schedule: Q03HX008 (ip), vehicle: saline",162 % of control
same,T/C,"endpoint: mean survival time, dose: 0.63 mg/kg/injection, schedule: Q03HX024 (ip), vehicle: saline",167 % of control
same,T/C,"endpoint: mean survival time, dose: 0.9 mg/kg/injection, schedule: Q01DX009 (ip), vehicle: saline with Tween-80",150 % of control
same,T/C,"endpoint: mean survival time, dose: 1.25 mg/kg/injection, schedule: Q01DX005 (ip), vehicle: clinical formulation",150 % of control and 171 % of control
same,T/C,"endpoint: mean survival time, dose: 1.25 mg/kg/injection, schedule: Q01DX005 (ip), vehicle: saline",154 % of control
same,T/C,"endpoint: mean survival time, dose: 1.25 mg/kg/injection, schedule: Q01DX005 (ip), vehicle: water",163 % of control
same,T/C,"endpoint: mean survival time, dose: 1.25 mg/kg/injection, schedule: Q01DX009 (ip), vehicle: saline",156 % of control
same,T/C,"endpoint: mean survival time, dose: 1.25 mg/kg/injection, schedule: Q01DX015 (ip), vehicle: carboxymethylcellulose (CMC)",180 % of control and 218 % of control
same,T/C,"endpoint: mean survival time, dose: 1.25 mg/kg/injection, schedule: Q03HX008 (ip), vehicle: saline",155 % of control
same,T/C,"endpoint: mean survival time, dose: 1.25 mg/kg/injection, schedule: Q03HX016 (ip), vehicle: saline",163 % of control
same,T/C,"endpoint: mean survival time, dose: 1.25 mg/kg/injection, schedule: Q03HX024 (ip), vehicle: saline",157 % of control
same,T/C,"endpoint: mean survival time, dose: 1.56 mg/kg/injection, schedule: Q01DX009 (ip), vehicle: saline",161 % of control and 173 % of control
same,T/C,"endpoint: mean survival time, dose: 1.87 mg/kg/injection, schedule: Q01DX015 (ip), vehicle: carboxymethylcellulose (CMC)",113 % of control
same,T/C,"endpoint: mean survival time, dose: 2.5 mg/kg/injection, schedule: Q01DX001 (ip), vehicle: saline",120 % of control
same,T/C,"endpoint: mean survival time, dose: 2.5 mg/kg/injection, schedule: Q01DX002 (ip), vehicle: Klucel (hydroxypropylcellulose) (HPC)",177 % of control
same,T/C,"endpoint: mean survival time, dose: 2.5 mg/kg/injection, schedule: Q01DX005 (ip), vehicle: clinical formulation",173 % of control and 178 % of control
same,T/C,"endpoint: mean survival time, dose: 2.5 mg/kg/injection, schedule: Q01DX005 (ip), vehicle: saline",171 % of control
same,T/C,"endpoint: mean survival time, dose: 2.5 mg/kg/injection, schedule: Q01DX005 (ip), vehicle: water",173 % of control
same,T/C,"endpoint: mean survival time, dose: 2.5 mg/kg/injection, schedule: Q01DX009 (ip), vehicle: saline",161 % of control
same,T/C,"endpoint: mean survival time, dose: 2.5 mg/kg/injection, schedule: Q01DX015 (ip), vehicle: carboxymethylcellulose (CMC)",155 % of control and 187 % of control
same,T/C,"endpoint: mean survival time, dose: 2.5 mg/kg/injection, schedule: Q03HX008 (ip), vehicle: saline",156 % of control
same,T/C,"endpoint: mean survival time, dose: 2.5 mg/kg/injection, schedule: Q03HX016 (ip), vehicle: saline",167 % of control
same,T/C,"endpoint: mean survival time, dose: 2.5 mg/kg/injection, schedule: Q04DX003 (ip), vehicle: saline",155 % of control
same,T/C,"endpoint: mean survival time, dose: 2.5 mg/kg/injection, schedule: Q08DX002 (ip), vehicle: saline",124 % of control
same,T/C,"endpoint: mean survival time, dose: 3.12 mg/kg/injection, schedule: Q01DX009 (ip), vehicle: saline",191 % of control and 206 % of control
same,T/C,"endpoint: mean survival time, dose: 4.5 mg/kg/injection, schedule: Q01DX009 (ip), vehicle: saline with Tween-80",208 % of control
same,T/C,"endpoint: mean survival time, dose: 5.0 mg/kg/injection, schedule: Q01DX005 (ip), vehicle: clinical formulation",166 % of control and 202 % of control
same,T/C,"endpoint: mean survival time, dose: 5.0 mg/kg/injection, schedule: Q01DX005 (ip), vehicle: saline",158 % of control
same,T/C,"endpoint: mean survival time, dose: 5.0 mg/kg/injection, schedule: Q01DX005 (ip), vehicle: water",192 % of control
same,T/C,"endpoint: mean survival time, dose: 5.0 mg/kg/injection, schedule: Q01DX009 (ip), vehicle: saline",156 % of control
same,T/C,"endpoint: mean survival time, dose: 5.0 mg/kg/injection, schedule: Q01DX015 (ip), vehicle: carboxymethylcellulose (CMC)",166 % of control
same,T/C,"endpoint: mean survival time, dose: 5.0 mg/kg/injection, schedule: Q03HX024 (ip), vehicle: saline",97 % of control
same,T/C,"endpoint: mean survival time, dose: 5.0 mg/kg/injection, schedule: Q04DX003 (ip), vehicle: saline",152 % of control
same,T/C,"endpoint: mean survival time, dose: 6.0 mg/kg/injection, schedule: Q01DX005 (oral), vehicle: saline",108 % of control
same,T/C,"endpoint: mean survival time, dose: 6.25 mg/kg/injection, schedule: Q01DX009 (ip), vehicle: saline",153 % of control
same,T/C,"endpoint: mean survival time, dose: 7.0 mg/kg/injection, schedule: Q01DX015 (ip), vehicle: carboxymethylcellulose (CMC)",150 % of control
same,T/C,"endpoint: mean survival time, dose: 7.5 mg/kg/injection, schedule: Q01DX015 (ip), vehicle: carboxymethylcellulose (CMC)",151 % of control
same,T/C,"endpoint: mean survival time, dose: 10.0 mg/kg/injection, schedule: Q01DX005 (ip), vehicle: clinical formulation",154 % of control and 198 % of control
same,T/C,"endpoint: mean survival time, dose: 10.0 mg/kg/injection, schedule: Q01DX005 (ip), vehicle: saline",219 % of control
same,T/C,"endpoint: mean survival time, dose: 10.0 mg/kg/injection, schedule: Q01DX005 (ip), vehicle: water",156 % of control
same,T/C,"endpoint: mean survival time, dose: 10.0 mg/kg/injection, schedule: Q01DX009 (ip), vehicle: saline",95 % of control
same,T/C,"endpoint: mean survival time, dose: 10.0 mg/kg/injection, schedule: Q01DX015 (ip), vehicle: carboxymethylcellulose (CMC)",114 % of control
same,T/C,"endpoint: mean survival time, dose: 10.0 mg/kg/injection, schedule: Q03HX008 (ip), vehicle: saline",86 % of control
same,T/C,"endpoint: mean survival time, dose: 10.0 mg/kg/injection, schedule: Q04DX003 (ip), vehicle: Klucel (hydroxypropylcellulose) (HPC)",156 % of control
same,T/C,"endpoint: mean survival time, dose: 10.0 mg/kg/injection, schedule: Q04DX003 (ip), vehicle: saline",170 % of control
same,T/C,"endpoint: mean survival time, dose: 10.0 mg/kg/injection, schedule: Q08DX002 (ip), vehicle: saline",154 % of control
same,T/C,"endpoint: mean survival time, dose: 12.0 mg/kg/injection, schedule: Q01DX005 (oral), vehicle: saline",116 % of control
same,T/C,"endpoint: mean survival time, dose: 15.0 mg/kg/injection, schedule: Q01DX015 (ip), vehicle: carboxymethylcellulose (CMC)",106 % of control and 155 % of control and 236 % of control
same,T/C,"endpoint: mean survival time, dose: 20.0 mg/kg/injection, schedule: Q01DX002 (ip), vehicle: Klucel (hydroxypropylcellulose) (HPC)",115 % of control
same,T/C,"endpoint: mean survival time, dose: 20.0 mg/kg/injection, schedule: Q01DX005 (ip), vehicle: saline",97 % of control
same,T/C,"endpoint: mean survival time, dose: 20.0 mg/kg/injection, schedule: Q04DX003 (ip), vehicle: saline",190 % of control
same,T/C,"endpoint: mean survival time, dose: 20.0 mg/kg/injection, schedule: Q08DX002 (ip), vehicle: saline",157 % of control
same,T/C,"endpoint: mean survival time, dose: 25.0 mg/kg/injection, schedule: Q01DX009 (ip), vehicle: saline",94 % of control
same,T/C,"endpoint: mean survival time, dose: 40.0 mg/kg/injection, schedule: Q04DX003 (ip), vehicle: Klucel (hydroxypropylcellulose) (HPC)",150 % of control
same,T/C,"endpoint: mean survival time, dose: 40.0 mg/kg/injection, schedule: Q08DX002 (ip), vehicle: saline",168 % of control
same,T/C,"endpoint: mean survival time, dose: 50.0 mg/kg/injection, schedule: Q01DX005 (ip), vehicle: saline",90 % of control
same,T/C,"endpoint: mean survival time, dose: 50.0 mg/kg/injection, schedule: Q01DX009 (ip), vehicle: saline",86 % of control
same,T/C,"endpoint: mean survival time, dose: 60.0 mg/kg/injection, schedule: Q04DX003 (oral), vehicle: saline",120 % of control
same,T/C,"endpoint: mean survival time, dose: 80.0 mg/kg/injection, schedule: Q08DX002 (ip), vehicle: saline",153 % of control
same,T/C,"endpoint: mean survival time, dose: 96.0 mg/kg/injection, schedule: Q01DX005 (oral), vehicle: saline",91 % of control
same,T/C,"endpoint: mean survival time, dose: 100.0 mg/kg/injection, schedule: Q01DX005 (ip), vehicle: saline",155 % of control
same,T/C,"endpoint: mean survival time, dose: 120.0 mg/kg/injection, schedule: Q04DX003 (oral), vehicle: saline",113 % of control
same,T/C,"endpoint: mean survival time, dose: 125.0 mg/kg/injection, schedule: Q01DX015 (ip), vehicle: carboxymethylcellulose (CMC)",114 % of control
same,T/C,"endpoint: mean survival time, dose: 145.0 mg/kg/injection, schedule: Q01DX001 (ip), vehicle: saline with Tween-80",160 % of control
same,T/C,"endpoint: mean survival time, dose: 240.0 mg/kg/injection, schedule: Q04DX003 (oral), vehicle: saline",119 % of control
same,T/C,"endpoint: mean survival time, dose: 250.0 mg/kg/injection, schedule: Q01DX015 (ip), vehicle: carboxymethylcellulose (CMC)",96 % of control
same,T/C,"endpoint: mean survival time, dose: 480.0 mg/kg/injection, schedule: Q04DX003 (oral), vehicle: saline",96 % of control
same,T/C,"endpoint: mean survival time, dose: 960.0 mg/kg/injection, schedule: Q08DX002 (oral), vehicle: saline",100 % of control
same,T/C,"endpoint: median survival time, dose: 0.06 mg/kg/injection, schedule: Q03HX024 (ip), vehicle: saline",112 % of control
same,T/C,"endpoint: median survival time, dose: 0.07 mg/kg/injection, schedule: Q03HX024 (ip), vehicle: saline",112 % of control
same,T/C,"endpoint: median survival time, dose: 0.12 mg/kg/injection, schedule: Q03HX024 (ip), vehicle: saline",121 % of control
same,T/C,"endpoint: median survival time, dose: 0.13 mg/kg/injection, schedule: Q03HX024 (ip), vehicle: saline",121 % of control
same,T/C,"endpoint: median survival time, dose: 0.5 mg/kg/injection, schedule: Q03HX024 (ip), vehicle: saline",101 % of control
same,T/C,"endpoint: median survival time, dose: 1.0 mg/kg/injection, schedule: Q03HX024 (ip), vehicle: saline",104 % of control
same,T/C,"endpoint: median survival time, dose: 32.0 mg/kg/injection, schedule: Q03HX024 (ip), vehicle: saline",153 % of control
